ChEMBL document CHEMBL1201862, “PubChem BioAssay data set” (2004)
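Cultured in 96-well plates, cells were exposed to test compound for 48 hours across five concentrations. GI50 is the concentration that inhibits growth by half.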 Activity calls are given as the source filed them. Rule as the data show it: active = GI50 up to about 1.1 µM and inactive = higher.

How the values were obtained:
Assay in all cases: NCI-60 cell line screen, 48 h
[1] = tested on: Hs-578T
[2] = tested on: OVCAR-5
[3] = tested on: TK-10
[4] = tested on: SR
[5] = tested on: OVCAR-3
[6] = tested on: RPMI-8226
[7] = tested on: NCI-H23
[8] = tested on: DU-145
[9] = tested on: CAKI-1
[10] = tested on: A549
[11] = tested on: EKVX
[12] = tested on: MCF7
[13] = tested on: SN12C
[14] = tested on: NCI-H460
[15] = tested on: OVCAR-8
[16] = tested on: SF-295
[17] = tested on: SK-MEL-2
[18] = tested on: K562
[19] = tested on: MOLT-4

Measured: GI50

CN(CC(=O)O)Cc1c(O)c(Cl)cc(Cl)c1Cl
inactive: [1] > 100 µM | [2] 26.5 µM | [3] 37.8 µM | [4] 5.55 µM | [5] 4.07 µM | [6] 37.4 µM | [7] 95.3 µM | [8] 34.4 µM | [9] 61.8 µM | [10] 53.7 µM | [11] 24.2 µM | [12] 17.9 µM | [13] 47 µM | [14] 5.13 µM | [15] 29.2 µM | [16] 64.9 µM | [17] 27.2 µM

CC1(C)CN=C(Nc2cccc(C(F)(F)F)c2)S1
inactive: [1] > 100 µM | [2] > 100 µM | [18] > 100 µM | [3] > 100 µM | [4] 40.2 µM | [5] > 100 µM | [6] > 100 µM | [7] > 100 µM | [19] > 100 µM | [8] > 100 µM | [9] > 100 µM | [10] > 100 µM | [11] > 100 µM | [12] > 100 µM | [13] > 100 µM | [15] > 100 µM | [16] > 100 µM | [17] > 100 µM

O=C1CC(=O)NC(NN2C(=O)/C(=C/c3ccccc3)N=C2c2ccccc2)=N1
inactive: [1] > 100 µM | [2] > 100 µM | [18] > 100 µM | [3] > 100 µM | [4] > 100 µM | [5] > 100 µM | [6] > 100 µM | [7] 39 µM | [19] > 100 µM | [8] > 100 µM | [9] > 100 µM | [10] > 100 µM | [12] > 100 µM | [13] > 100 µM | [14] > 100 µM | [15] > 100 µM | [16] > 100 µM | [17] > 100 µM

O=C(O)CCC/N=C(\C(=N\CCCC(=O)O)c1ccccc1)c1ccccc1
inactive: [1] > 100 µM | [2] > 100 µM | [18] > 100 µM | [3] > 100 µM | [4] > 100 µM | [5] > 100 µM | [6] > 100 µM | [7] > 100 µM | [19] > 100 µM | [8] > 100 µM | [10] > 100 µM | [11] > 100 µM | [12] > 100 µM | [13] > 100 µM | [14] > 100 µM | [15] > 100 µM | [16] > 100 µM | [17] > 100 µM

CO/N=C1\CCC2(O)C3Cc4ccc(O)c5c4C2(CCN3CC2CC2)[C@H]1O5 (stereo partly drawn)
inactive: [1] > 100 µM | [2] > 100 µM | [18] > 100 µM | [3] > 100 µM | [4] > 100 µM | [5] > 100 µM | [6] > 100 µM | [7] > 100 µM | [19] > 100 µM | [8] > 100 µM | [9] > 100 µM | [10] > 100 µM | [11] > 100 µM | [12] > 100 µM | [13] > 100 µM | [15] > 100 µM | [16] > 100 µM | [17] > 100 µM

O=C1c2cc([N+](=O)[O-])cnc2S(=O)(=O)N1c1ccc(Oc2ccccc2)cc1
inactive: [1] > 100 µM | [2] > 100 µM | [18] > 100 µM | [3] > 100 µM | [4] 57 µM | [5] > 100 µM | [6] > 100 µM | [7] > 100 µM | [19] 33 µM | [8] > 100 µM | [10] > 100 µM | [11] > 100 µM | [12] > 100 µM | [13] > 100 µM | [14] > 100 µM | [15] > 100 µM | [16] > 100 µM | [17] > 100 µM

Cc1nc2c(O)cc3c4c(=O)n(C)c(=O)n(C)c4n(Cc4ccccc4)c3c2nc1C
inactive: [1] 26.5 µM | [2] 22.6 µM | [18] 34.1 µM | [3] 17.6 µM | [4] 24.4 µM | [6] 19.1 µM | [7] 19.3 µM | [19] 24.5 µM | [8] 18.3 µM | [10] 19.2 µM | [11] 24.3 µM | [12] 15.8 µM | [13] 19.9 µM | [14] 45.8 µM | [15] 18.3 µM | [16] 50.5 µM | [17] 18 µM

CC(=O)O[C@@H]1[C@H]2[C@@H](OC(=O)c3ccccc3)[C@@H](C)C[C@]2(O)[C@H](OC(C)=O)[C@@]2(C)[C@@H]3CC(C)(C)C(=O)[C@]3(OC(C)=O)C[C@@]12C
inactive: [1] 9.53 µM | [2] > 25 µM | [3] > 25 µM | [4] 20.7 µM | [5] > 25 µM | [7] > 25 µM | [19] 2.09 µM | [8] > 25 µM | [9] 13.4 µM | [11] > 25 µM | [12] > 25 µM | [13] > 25 µM | [14] 2.06 µM | [15] 20.6 µM | [16] 7 µM | [17] > 25 µM

O=c1nc(Oc2c(F)c(F)c(F)c(F)c2F)ccn1C1OC(CO)C(O)C1O (stereo not drawn)
inactive: [1] > 100 µM | [2] > 100 µM | [18] > 100 µM | [3] > 100 µM | [4] 58.1 µM | [5] 53.8 µM | [6] > 100 µM | [7] > 100 µM | [19] 43.9 µM | [8] > 100 µM | [9] > 100 µM | [10] > 100 µM | [11] > 100 µM | [12] > 100 µM | [13] > 100 µM | [15] > 100 µM | [16] > 100 µM | [17] > 100 µM

COC(=O)C1=C(C(=O)OC)C2OC1c1cc3ccccc3cc12
inactive: [1] 18.2 µM | [2] 4.88 µM | [3] 5.2 µM | [4] 1.88 µM | [5] 2.88 µM | [6] 2.33 µM | [7] 5.96 µM | [19] 1.54 µM | [8] 7.78 µM | [9] 2.05 µM | [10] 18.7 µM | [11] 6.07 µM | [12] 8.89 µM | [13] 16.4 µM | [14] 22.2 µM | [15] 4.49 µM | [16] 18.8 µM | [17] 15.4 µM

CCOC(=O)[C@@]1(C)CC(O)C(=O)N1C (stereo partly drawn)
inactive: [1] > 100 µM | [2] > 100 µM | [3] > 100 µM | [4] > 100 µM | [5] > 100 µM | [6] > 100 µM | [7] > 100 µM | [19] > 100 µM | [8] > 100 µM | [9] > 100 µM | [10] > 100 µM | [11] > 100 µM | [12] > 100 µM | [13] > 100 µM | [15] > 100 µM | [16] > 100 µM | [17] > 100 µM
